Results: patent US20090022757A1, “Method for treating photoreceptor cell degeneration” (priority 2007, published 2009)

Tests used:
[1] = system: rat retinal photoreceptor; experiment: Electroretinogram of rats treated with different MNU dosages; details: for Number of Eyes with extinguished electroretinogram: n = 10
[2] = system: rat retinal photoreceptor cells; experiment: Pathological examination (damage score) of retinal photoreceptor cells in rats treated with different MNU dosages

## CN(N=O)C(N)=O [MNU, N-methyl-N-nitrosourea]
[1]; MNU 40 mg/kg, 7 d
  Number of Eyes with extinguished electroretinogram: 8
[1]; MNU 40 mg/kg, 10 d
  a-wave amplitude of electroretinogram: 9.54 ± 12.89
  a-wave latent period of electroretinogram: 6.64 ± 8.61
  b-wave amplitude of electroretinogram: 24.25 ± 31.58
  b-wave latent period of electroretinogram: 27.31 ± 35.56
  Number of Eyes with extinguished electroretinogram: 6
[1]; MNU 45 mg/kg, 12 h
  a-wave amplitude of electroretinogram: 0
  a-wave latent period of electroretinogram: 6.60 ± 9.55
  b-wave amplitude of electroretinogram: 0
  b-wave latent period of electroretinogram: 25.08 ± 8.55
  Number of Eyes with extinguished electroretinogram: 6
[1]; MNU 45 mg/kg, 1 d
  a-wave amplitude of electroretinogram: 0
  a-wave latent period of electroretinogram: 0
  b-wave amplitude of electroretinogram: 0
  b-wave latent period of electroretinogram: 0
  Number of Eyes with extinguished electroretinogram: 10
[1]; MNU 45 mg/kg, 3 d
  a-wave amplitude of electroretinogram: 0
  a-wave latent period of electroretinogram: 0
  b-wave amplitude of electroretinogram: 0
  b-wave latent period of electroretinogram: 0
  Number of Eyes with extinguished electroretinogram: 10
[1]; MNU 45 mg/kg, 7 d
  a-wave amplitude of electroretinogram: 0
  a-wave latent period of electroretinogram: 0
  b-wave amplitude of electroretinogram: 0
  b-wave latent period of electroretinogram: 0
  Number of Eyes with extinguished electroretinogram: 10
[1]; MNU 45 mg/kg, 10 d
  a-wave amplitude of electroretinogram: 4.89 ± 10.48
  a-wave latent period of electroretinogram: 6.47 ± 7.33
  b-wave amplitude of electroretinogram: 11.31 ± 23.93
  b-wave latent period of electroretinogram: 14.42 ± 30.46
  Number of Eyes with extinguished electroretinogram: 8
[1]; MNU 50 mg/kg, 12 h
  a-wave amplitude of electroretinogram: 0
  a-wave latent period of electroretinogram: 0
  Number of Eyes with extinguished electroretinogram: 10
[1]; MNU 50 mg/kg, 1 d
  a-wave amplitude of electroretinogram: 0
  a-wave latent period of electroretinogram: 0
  Number of Eyes with extinguished electroretinogram: 10
[1]; MNU 50 mg/kg, 3 d
  a-wave amplitude of electroretinogram: 0
  a-wave latent period of electroretinogram: 0
  Number of Eyes with extinguished electroretinogram: 10
[1]; MNU 50 mg/kg, 7 d
  a-wave amplitude of electroretinogram: 0
  a-wave latent period of electroretinogram: 0
  Number of Eyes with extinguished electroretinogram: 10
[1]; MNU 50 mg/kg, 10 d
  a-wave amplitude of electroretinogram: 0
  a-wave latent period of electroretinogram: 0
  Number of Eyes with extinguished electroretinogram: 10
[2]
  minimum dosage that could cause damage to the entire outer nuclear layer cell of rat retinal: 40 mg/kg
[2]; MNU 30 mg/kg, 12 h
  Damage score of rat retinal photoreceptor cells: 0.20 ± 0.42
[2]; MNU 30 mg/kg, 1 d
  Damage score of rat retinal photoreceptor cells: 0.40 ± 0.52
[2]; MNU 30 mg/kg, 3 d
  Damage score of rat retinal photoreceptor cells: 0.40 ± 0.52
[2]; MNU 30 mg/kg, 7 d
  Damage score of rat retinal photoreceptor cells: 0.20 ± 0.42
[2]; MNU 30 mg/kg, 10 d
  Damage score of rat retinal photoreceptor cells: 0
[2]; MNU 35 mg/kg, 12 h
  Damage score of rat retinal photoreceptor cells: 0.20 ± 0.42
[2]; MNU 35 mg/kg, 1 d
  Damage score of rat retinal photoreceptor cells: 0.60 ± 0.52
[2]; MNU 35 mg/kg, 3 d
  Damage score of rat retinal photoreceptor cells: 0.80 ± 0.42
[2]; MNU 35 mg/kg, 7 d
  Damage score of rat retinal photoreceptor cells: 0.40 ± 0.52
[2]; MNU 35 mg/kg, 10 d
  Damage score of rat retinal photoreceptor cells: 0
[2]; MNU 40 mg/kg, 12 h
  Damage score of rat retinal photoreceptor cells: 1.00 ± 0.67
[2]; MNU 40 mg/kg, 1 d
  Damage score of rat retinal photoreceptor cells: 2.20 ± 1.03
[2]; MNU 40 mg/kg, 3 d
  Damage score of rat retinal photoreceptor cells: 4.60 ± 3.10
[2]; MNU 40 mg/kg, 7 d
  Damage score of rat retinal photoreceptor cells: 7.60 ± 6.29
[2]; MNU 40 mg/kg, 10 d
  Damage score of rat retinal photoreceptor cells: 7.40 ± 6.44
[2]; MNU 45 mg/kg, 12 h
  Damage score of rat retinal photoreceptor cells: 1.6 ± 0.52
[2]; MNU 45 mg/kg, 1 d
  Damage score of rat retinal photoreceptor cells: 4.00 ± 2.31
[2]; MNU 45 mg/kg, 3 d
  Damage score of rat retinal photoreceptor cells: 6.80 ± 5.27
[2]; MNU 45 mg/kg, 7 d
  Damage score of rat retinal photoreceptor cells: 9.60 ± 5.95
[2]; MNU 45 mg/kg, 10 d
  Damage score of rat retinal photoreceptor cells: 9.20 ± 6.20
[2]; MNU 50 mg/kg, 12 h
  Damage score of rat retinal photoreceptor cells: 2.40 ± 1.43
[2]; MNU 50 mg/kg, 1 d
  Damage score of rat retinal photoreceptor cells: 6.80 ± 5.27
[2]; MNU 50 mg/kg, 3 d
  Damage score of rat retinal photoreceptor cells: 10.04 ± 5.06
[2]; MNU 50 mg/kg, 7 d
  Damage score of rat retinal photoreceptor cells: 11.20 ± 5.27
[2]; MNU 50 mg/kg, 10 d
  Damage score of rat retinal photoreceptor cells: 11.20 ± 5.27
